Publication PMC9298194, “Clinical Pharmacokinetics of Daprodustat: Results of an Absorption, Distribution, and Excretion Study With Intravenous Microtracer and Concomitant Oral Doses for Bioavailability Determination” (Clinical Pharmacology in Drug Development, 2021)

Tests used:
[1] = Urine and fecal excretion of total radioactivity (mass balance); assay type: in vivo, human; details: 25 mg [14C] oral solution; for total radioactivity recovered (urinary + fecal): 96‐ to 120‐hour collection (day 5) onward
Procedure: On day 1 of treatment period 2, after an overnight fast of at least 8 hours, each participant received 25 mg [^14C]‐GSK1278863 (≈2.31 MBq; 62.5 μCi) as an oral solution; participants continued to fast for 4 hours after dosing.[15] Blood, urine, and fecal samples were collected for a minimum of 144 hours (up to day 7) after dosing, depending on the amount of radioactivity excreted by each participant in excreta collected daily. Liquid scintillation counting (LSC) was performed on these excreta collections on an ongoing basis to assess recovery of the radioactivity dosed. Participants were discharged if ≥90% and <1% of the dose was excreted on both days 6 and 7.
Urine samples for measurement of total radioactivity excreted in urine were collected before dosing in period 1, then over the time periods 0 to 24, 24 to 48, 48 to 72, 72 to 96, 96 to 120, and 120 to 144 hours in period 2. An aliquot of each 24‐hour urine collection was shipped at ambient temperature to Covance (Harrogate, North Yorkshire, UK) for total radioactivity measurement by LSC. […] Total fecal samples were frozen at −70°C, then shipped on cold gel packs to Covance for total radioactivity measurement by LSC (following homogenization). Aliquots of both urine and fecal homogenates were also sent to GlaxoSmithKline (GSK) for characterization and quantification of metabolites (data not reported). • The following parameters were determined from the urine and fecal radiolabeled drug‐related material (total radioactivity) data: • Absolute amount excreted and percentage excreted in urine (Ae [urine] and Fe% [urine]) within each collection period and cumulative urinary recovery and fraction excreted over the total collection period • Absolute amount excreted and percentage excreted in feces (Ae [fecal] and Fe% [fecal]) with each collection period and cumulative fecal recovery and fraction excreted over the total collection period and cumulatively over the collection period
Total excretion (sum of urine and fecal excretion), Ae [total], and Fe% [total] were calculated by collection interval for each participant. […]

[2] = Safety and tolerability (adverse events) in healthy male participants; assay type: in vivo, human; details: for deaths or serious adverse events: 6 healthy men
Excerpt: Safety and tolerability measures included assessment of adverse events (AEs), serious adverse events (SAEs), clinical laboratory findings, vital signs (systolic and diastolic blood pressure and pulse rate), ECGs, and concurrent medications. An AE was defined as any untoward medical occurrence in a participant temporally associated with the use of an investigational product, whether or not considered related to the investigational product. […] The investigator or site staff was responsible for detecting, documenting, and reporting events that met the definition of an AE or SAE.

[3] = Period 1: 6‐mg oral tablet + 50‐μg IV

O=C(O)CNC(=O)C1C(=O)N(C2CCCCC2)C(=O)N(C2CCCCC2)C1=O [Daprodustat]
unchanged daprodustat excreted in urine [1]: ≈ 0.5 % of the administered radioactivity
total radioactivity recovered (urinary + fecal) [1]: ≈ 95 % of the administered radioact
total radioactivity recovered (urinary + fecal) ([1]; listed as [^14C]‐GSK1278863): ≈ 95 % of the administered radioactivity
participants reporting AEs ([2]; 3 of 6 participants): 50%
Back pain [2, 3]: 1 (17) n (%)
Decreased appetite [2, 3]: 1 (17) n (%)
Headache [2, 3]: 1 (17) n (%)
Musculoskeletal chest pain [2, 3]: 0 n (%)
Myalgia [2, 3]: 1 (17) n (%)
Oropharyngeal pain [2, 3]: 0 n (%)
Back pain ([2]; Period 2: 25‐mg oral solution): 0 n (%)
Decreased appetite ([2]; Period 2: 25‐mg oral solution): 0 n (%)
Headache ([2]; Period 2: 25‐mg oral solution): 1 (17) n (%)
Musculoskeletal chest pain ([2]; Period 2: 25‐mg oral solution): 1 (17) n (%)
Myalgia ([2]; Period 2: 25‐mg oral solution): 0 n (%)
Oropharyngeal pain ([2]; Period 2: 25‐mg oral solution): 1 (17) n (%)
Back pain ([2]; Total): 1 (17) n (%)
Decreased appetite ([2]; Total): 1 (17) n (%)
Headache ([2]; Total): 1 (17) n (%)
Musculoskeletal chest pain ([2]; Total): 1 (17) n (%)
Myalgia ([2]; Total): 1 (17) n (%)
Oropharyngeal pain ([2]; Total): 1 (17) n (%)
deaths or serious adverse events ([2]; both treatment periods): no deaths or serious or significant adverse events reported
deaths or serious adverse events ([2]; both treatment periods, listed as daprodustat): No deaths or other SAEs
total number of AEs reported ([2]; both treatment periods, N = 6): 7
tolerability ([2]; oral tablet, microtracer IV or oral solution dose): generally well tolerated
